Results from PubChem BioAssay AID2060497 (Molecular Pharmacology Branch, DTP, NCI, 2025).

Test system: 317291-083-R-J1-PDC complex spheroids, viability
Assay: Anticancer human tumor 317291-083-R-J1-PDC patient-derived soft tissue sarcoma cell line growth inhibition [GQUAD]
Conditions: for IC50: curve of first compound; for viability, T/C: stronger effect = lower value
How it was run: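 Multi-cell-type spheroids of tumor cells with HUVEC and mesenchymal stem cells, treated with drug combinations. Concentrations descend in half-log steps from near clinical Cmax, or from 10 microM where Cmax is unknown; viability read-out.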

[1] = second compound 0.0316 µM, first compound 0.0316 µM
[2] = second compound 0.0316 µM, first compound 0.1 µM
[3] = second compound 0.0316 µM, first compound 0.316 µM
[4] = second compound 0.0316 µM, first compound 1 µM
[5] = second compound 0.0316 µM, first compound 3.16 µM
[6] = second compound 0.0316 µM, first compound 10 µM
[7] = second compound 0.1 µM, first compound 0.0316 µM
[8] = second compound 0.1 µM, first compound 0.1 µM
[9] = second compound 0.1 µM, first compound 0.316 µM
[10] = second compound 0.1 µM, first compound 1 µM
[11] = second compound 0.1 µM, first compound 3.16 µM
[12] = second compound 0.1 µM, first compound 10 µM
[13] = second compound 0.316 µM, first compound 0.0316 µM
[14] = second compound 0.316 µM, first compound 0.1 µM
[15] = second compound 0.316 µM, first compound 0.316 µM
[16] = second compound 0.316 µM, first compound 1 µM
[17] = second compound 0.316 µM, first compound 3.16 µM
[18] = second compound 0.316 µM, first compound 10 µM
[19] = second compound 1 µM, first compound 0.0316 µM
[20] = second compound 1 µM, first compound 0.1 µM
[21] = second compound 1 µM, first compound 0.316 µM
[22] = second compound 1 µM, first compound 1 µM
[23] = second compound 1 µM, first compound 3.16 µM
[24] = second compound 1 µM, first compound 10 µM
[25] = second compound 3.16 µM, first compound 0.0316 µM
[26] = second compound 3.16 µM, first compound 0.1 µM
[27] = second compound 3.16 µM, first compound 0.316 µM
[28] = second compound 3.16 µM, first compound 1 µM
[29] = second compound 3.16 µM, first compound 3.16 µM
[30] = second compound 3.16 µM, first compound 10 µM
[31] = second compound 10 µM, first compound 0.0316 µM
[32] = second compound 10 µM, first compound 0.1 µM
[33] = second compound 10 µM, first compound 0.316 µM
[34] = second compound 10 µM, first compound 1 µM
[35] = second compound 10 µM, first compound 3.16 µM
[36] = second compound 10 µM, first compound 10 µM
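Further: spheroids exposed to compounds for one week before readout.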
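Wherever viability, T/C is given: percent viability relative to DMSO vehicle wells taken as 100%.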

**Q.** `C=CCn1c(=O)c2cnc(Nc3ccc(N4CCN(C)CC4)cc3)nc2n1-c1cccc(C(C)(C)O)n1` + Cc1cnc(CNC(=O)c2c(=O)c3ccc(N4CCCN(C)CC4)nc3n3c2sc2ccccc23)cn1 was tested. Which IC50 (second compound 0.0316 µM) did it give?
**A.** The IC50 was 0.171 µM.

**Q.** And the IC50 (second compound 0.1 µM)?
**A.** Its IC50 is 0.0647 µM.

**Q.** What about the IC50 (second compound 0.316 µM) of the same compound?
**A.** The IC50 was < 0.0316 µM.

**Q.** And the IC50 (second compound 1 µM)?
**A.** Its IC50 is < 0.0316 µM.

**Q.** What about the IC50 (second compound 3.16 µM) of the same compound?
**A.** The IC50 was < 0.0316 µM.

**Q.** What about the IC50 (second compound 10 µM) of the same compound?
**A.** The IC50 was < 0.0316 µM.

**Q.** What about the viability, T/C [1] of the same compound?
**A.** The viability, T/C was 79.7%.

**Q.** And the viability, T/C [2]?
**A.** The viability, T/C was 65.5%.

**Q.** What about the viability, T/C [3] of the same compound?
**A.** Its viability, T/C is 31.2%.

**Q.** What about the viability, T/C [4] of the same compound?
**A.** Its viability, T/C is 28.8%.

**Q.** What about the viability, T/C [5] of the same compound?
**A.** The viability, T/C was 17.8%.

**Q.** What about the viability, T/C [6] of the same compound?
**A.** The viability, T/C was 17.2%.

**Q.** What about the viability, T/C [7] of the same compound?
**A.** The viability, T/C was 57.3%.

**Q.** What about the viability, T/C [8] of the same compound?
**A.** Its viability, T/C is 45.4%.

**Q.** What about the viability, T/C [9] of the same compound?
**A.** Its viability, T/C is 30.3%.

**Q.** What about the viability, T/C [10] of the same compound?
**A.** The viability, T/C was 19.9%.

**Q.** What about the viability, T/C [11] of the same compound?
**A.** Its viability, T/C is 14.6%.

**Q.** What about the viability, T/C [12] of the same compound?
**A.** The viability, T/C was 14.8%.

**Q.** What about the viability, T/C [13] of the same compound?
**A.** Its viability, T/C is 43.2%.

**Q.** And the viability, T/C [14]?
**A.** Its viability, T/C is 27.5%.

**Q.** What about the viability, T/C [15] of the same compound?
**A.** The viability, T/C was 22.6%.

**Q.** And the viability, T/C [16]?
**A.** Its viability, T/C is 20.9%.

**Q.** And the viability, T/C [17]?
**A.** The viability, T/C was 12%.

**Q.** And the viability, T/C [18]?
**A.** The viability, T/C was 17.6%.

**Q.** What about the viability, T/C [19] of the same compound?
**A.** Its viability, T/C is 27.7%.

**Q.** And the viability, T/C [20]?
**A.** Its viability, T/C is 30.3%.

**Q.** What about the viability, T/C [21] of the same compound?
**A.** The viability, T/C was 24.6%.

**Q.** What about the viability, T/C [22] of the same compound?
**A.** The viability, T/C was 15.1%.

**Q.** What about the viability, T/C [23] of the same compound?
**A.** Its viability, T/C is 8.69%.

**Q.** And the viability, T/C [24]?
**A.** Its viability, T/C is 8.16%.

**Q.** And the viability, T/C [25]?
**A.** Its viability, T/C is 15.6%.

**Q.** What about the viability, T/C [26] of the same compound?
**A.** Its viability, T/C is 13%.

**Q.** And the viability, T/C [27]?
**A.** Its viability, T/C is 19.1%.

**Q.** What about the viability, T/C [28] of the same compound?
**A.** The viability, T/C was 4.5%.

**Q.** What about the viability, T/C [29] of the same compound?
**A.** The viability, T/C was 4.07%.

**Q.** And the viability, T/C [30]?
**A.** Its viability, T/C is 2.45%.

**Q.** What about the viability, T/C [31] of the same compound?
**A.** Its viability, T/C is 0.13%.

**Q.** What about the viability, T/C [32] of the same compound?
**A.** The viability, T/C was 0.27%.

**Q.** What about the viability, T/C [33] of the same compound?
**A.** Its viability, T/C is 0.18%.

**Q.** What about the viability, T/C [34] of the same compound?
**A.** Its viability, T/C is 1.89%.

**Q.** And the viability, T/C [35]?
**A.** Its viability, T/C is 0.2%.

**Q.** And the viability, T/C [36]?
**A.** The viability, T/C was 0.61%.

**Q.** Which IC50 (second compound 0.0316 µM) does the source give for `CC(C)(O)C1CCC(Nc2ccc3ncc(-c4cccc(C(F)(F)F)c4)n3n2)CC1` (centres undefined) + Cc1cnc(CNC(=O)c2c(=O)c3ccc(N4CCCN(C)CC4)nc3n3c2sc2ccccc23)cn1 here?
**A.** The IC50 was 0.507 µM.

**Q.** And the IC50 (second compound 0.1 µM)?
**A.** The IC50 was 0.342 µM.

**Q.** And the IC50 (second compound 0.316 µM)?
**A.** Its IC50 is 0.0914 µM.

**Q.** What about the IC50 (second compound 1 µM) of the same compound?
**A.** The IC50 was < 0.0316 µM.

**Q.** And the IC50 (second compound 3.16 µM)?
**A.** The IC50 was < 0.0316 µM.

**Q.** What about the IC50 (second compound 10 µM) of the same compound?
**A.** The IC50 was < 0.0316 µM.

**Q.** What about the viability, T/C [1] of the same compound?
**A.** The viability, T/C was 87.8%.

**Q.** What about the viability, T/C [2] of the same compound?
**A.** The viability, T/C was 76.5%.

**Q.** What about the viability, T/C [3] of the same compound?
**A.** The viability, T/C was 72.1%.

**Q.** And the viability, T/C [4]?
**A.** Its viability, T/C is 19%.

**Q.** What about the viability, T/C [5] of the same compound?
**A.** Its viability, T/C is 0.22%.

**Q.** What about the viability, T/C [6] of the same compound?
**A.** Its viability, T/C is 0.45%.

**Q.** What about the viability, T/C [7] of the same compound?
**A.** Its viability, T/C is 58.2%.

**Q.** And the viability, T/C [8]?
**A.** The viability, T/C was 60%.

**Q.** And the viability, T/C [9]?
**A.** Its viability, T/C is 49.1%.

**Q.** And the viability, T/C [10]?
**A.** The viability, T/C was 28%.

**Q.** What about the viability, T/C [11] of the same compound?
**A.** Its viability, T/C is 0.24%.

**Q.** What about the viability, T/C [12] of the same compound?
**A.** Its viability, T/C is 1.34%.

**Q.** What about the viability, T/C [13] of the same compound?
**A.** Its viability, T/C is 72.8%.

**Q.** What about the viability, T/C [14] of the same compound?
**A.** The viability, T/C was 37.8%.

**Q.** What about the viability, T/C [15] of the same compound?
**A.** The viability, T/C was 37.8%.

**Q.** And the viability, T/C [16]?
**A.** Its viability, T/C is 24.8%.

**Q.** What about the viability, T/C [17] of the same compound?
**A.** The viability, T/C was 1.74%.

**Q.** And the viability, T/C [18]?
**A.** The viability, T/C was 2.26%.

**Q.** And the viability, T/C [19]?
**A.** The viability, T/C was 30.8%.

**Q.** And the viability, T/C [20]?
**A.** Its viability, T/C is 19.5%.

**Q.** And the viability, T/C [21]?
**A.** Its viability, T/C is 16%.

**Q.** What about the viability, T/C [22] of the same compound?
**A.** The viability, T/C was 25.2%.

**Q.** What about the viability, T/C [23] of the same compound?
**A.** Its viability, T/C is 0.05%.

**Q.** What about the viability, T/C [24] of the same compound?
**A.** The viability, T/C was 0.07%.

**Q.** What about the viability, T/C [25] of the same compound?
**A.** Its viability, T/C is 13.3%.

**Q.** And the viability, T/C [26]?
**A.** Its viability, T/C is 14.7%.

**Q.** And the viability, T/C [27]?
**A.** Its viability, T/C is 8.5%.

**Q.** And the viability, T/C [28]?
**A.** Its viability, T/C is 0.54%.

**Q.** What about the viability, T/C [29] of the same compound?
**A.** Its viability, T/C is 0.12%.

**Q.** And the viability, T/C [30]?
**A.** The viability, T/C was 0.16%.

**Q.** And the viability, T/C [31]?
**A.** Its viability, T/C is 1.34%.

**Q.** And the viability, T/C [32]?
**A.** The viability, T/C was 0.11%.

**Q.** And the viability, T/C [33]?
**A.** The viability, T/C was 0.17%.

**Q.** What about the viability, T/C [34] of the same compound?
**A.** The viability, T/C was 0.12%.

**Q.** And the viability, T/C [35]?
**A.** The viability, T/C was 0.21%.

**Q.** And the viability, T/C [36]?
**A.** The viability, T/C was 0.22%.
